From patent publication US5861476A, “Peptides and compounds that bind to the IL-1 receptor” (Affymax Technologies N.V., priority 1995, dated 1999) come the findings set out here.

The target of one experiment is T1, IL-1RtI (Homo sapiens, UniProt P14778).
T1 construct: made in house; host or cells: recombinant host cells (one form soluble from baculovirus transformed host cells; another PIG-tailed and cleaved from the cell surface)
T1 sequence (P14778 18-336): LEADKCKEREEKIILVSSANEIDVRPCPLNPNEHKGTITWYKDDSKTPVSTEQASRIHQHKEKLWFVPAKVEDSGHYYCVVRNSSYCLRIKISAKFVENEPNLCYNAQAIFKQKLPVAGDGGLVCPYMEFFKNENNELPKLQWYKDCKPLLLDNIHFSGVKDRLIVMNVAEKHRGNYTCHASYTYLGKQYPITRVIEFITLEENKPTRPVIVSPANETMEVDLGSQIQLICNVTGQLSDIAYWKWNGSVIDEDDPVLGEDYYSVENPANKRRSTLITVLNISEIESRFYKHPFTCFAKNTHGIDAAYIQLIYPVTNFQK
In words: Inhibition of 125I-IL-1α binding to IL-1RtI (Example 3). Conditions: inhibition of 125I-IL-1α binding to IL-1RtI; soluble peptide unless marked *. The gist of the method:
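Competition with 90 pM 125I-IL-1α was run in duplicate for 2 h at 4 °C in HEPES-buffered RPMI with 1% BSA, pH 7.2-7.3, against either antibody-captured truncated receptor or cells with full-length IL-1RtI. Gamma counting of NaOH-detached material gave approximate IC50; high-affinity peptides used 24-well format.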

The target in experiment [1] is T2, IL-1 induced down-regulation of the epidermal growth factor (EGF) receptor in normal human dermal fibroblasts (NHDF) (Homo sapiens, UniProt P14778).
T2 sequence (P14778 18-569): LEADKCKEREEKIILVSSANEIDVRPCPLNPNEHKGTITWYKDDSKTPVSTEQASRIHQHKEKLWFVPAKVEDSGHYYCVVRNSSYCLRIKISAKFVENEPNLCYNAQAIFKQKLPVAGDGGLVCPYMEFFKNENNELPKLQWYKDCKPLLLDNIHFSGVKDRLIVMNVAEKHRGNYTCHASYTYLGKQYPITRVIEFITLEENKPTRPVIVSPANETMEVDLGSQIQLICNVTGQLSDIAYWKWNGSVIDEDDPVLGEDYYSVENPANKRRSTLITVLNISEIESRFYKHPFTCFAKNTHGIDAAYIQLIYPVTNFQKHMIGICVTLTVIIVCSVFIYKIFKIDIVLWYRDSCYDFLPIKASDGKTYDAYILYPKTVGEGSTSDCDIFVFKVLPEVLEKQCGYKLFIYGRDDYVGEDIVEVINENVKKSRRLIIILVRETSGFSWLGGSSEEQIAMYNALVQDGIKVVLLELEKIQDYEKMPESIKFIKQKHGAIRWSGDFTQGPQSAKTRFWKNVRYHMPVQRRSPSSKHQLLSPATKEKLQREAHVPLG
As to the kind of experiment: Epidermal Growth Factor Receptor Down Regulation Assay. The format is cell-based. Conditions: 37° C., in the presence of IL-1α, 125I-labeled EGF binding, read-out: IC50 (approximate concentration which blocked 50% of the IL-1 induced down regulation of the EGF receptor). The text has this: The protocol set forth in Bird and Saklatvala (1989) J. Immunol. […] This assay examines the effect of the compounds of the invention on the IL-1 induced down-regulation of the epidermal growth factor (EGF) receptor as measured by the binding of ^125 I-labeled EGF to its receptor in normal human dermal fibroblasts (NHDF). […] The table below lists the approximate concentration of representative peptides of the invention which blocked 50% of the IL-1 induced down regulation of the EGF receptor. IC50 values are indicated symbolically by the symbols "-", "+", and "++". […] Those peptides which give IC50 values of less than or equal to 100 μM are given a "+", while those which give IC50 values of 500 nM or less are indicated with a "++". Those peptides which give IC50 values at or near the cutoff point for a particular symbol are indicated with a hybrid, e.g. "±". Those peptides for which IC50 values were not determined are listed as "N.D".

Experiment [2] has as its target T3, IL-1 induced E-selectin in HUVEC cells (Homo sapiens, UniProt P14778).
T3 sequence (P14778 18-569): T2 sequence (P14778 18-569)
As to the kind of experiment: Peptide Effects on IL-1 Induced E-Selectin (HUVEC Cells). Format: cell-based. As to conditions: 120 pM IL-1α, read-out: IC50 (concentration required to inhibit 50% of IL-1 induced E-selectin expression). The method, then:
The compounds of the present invention were assayed for their ability to inhibit the expression of IL-1 induced E-selectin in HUVEC cells (human umbilical vein endothelial cells). HUVEC cells are grown to confluency in the wells of a 24-well microtiter plate. The compounds were serially diluted in DMEM/F12+0.1% BSA ("SFM"with 120 pM IL-1α. The cells were washed and then incubated with IL-1α and the compound to be tested for 15 minutes. The cells were again washed and incubated in SFM for 4 hours. The cells were washed and incubated with anti-selectin antibody for 30 minutes. Following antibody incubation, the cells were incubated with ^125 I Protein A and washed. The amount of ^125 I bound to the cells was then determined. The concentration of compounds required to inhibit 50% of IL-1 induced E-selectin expression is shown below.

Where a SMILES comes first, the peptide text is derived from it. Where no end group is shown, it is not given here. [ ]: non-standard residue; d: D form. Aze = O=C(O)[C@@H]1CCN1

As to `CC(=O)N[C@@H](Cc1ccccc1)C(=O)N[C@@H](CCC(=O)O)C(=O)N[C@@H](Cc1c[nH]c2ccccc12)C(=O)N[C@H](C(=O)N1CCC[C@H]1C(=O)NCC(=O)N[C@@H](Cc1c[nH]c2ccccc12)C(=O)N[C@@H](Cc1ccc(O)cc1)C(=O)N[C@@H](CCC(N)=O)C(=O)N1CC[C@H]1C(=O)N[C@@H](Cc1ccc(O)cc1)C(N)=O)[C@@H](C)O` [AcFEWTPGWYQJY--NH2] (Ac-FEWTPGWYQ[Aze]Y-NH2), the IC50 at IL-1RtI is at most 500 nM; in experiment [1], 500 nM; in experiment [2], at most 500 nM.
As for TANVSSFEWTPGYWQPYALPL, the IC50 (on IL-1RtI; in experiment [1]; in experiment [2]) was at most 500 nM each time.
With `CC(=O)N[C@@H](Cc1ccccc1)C(=O)N[C@@H](CCC(=O)O)C(=O)N[C@@H](Cc1c[nH]c2ccccc12)C(=O)N[C@H](C(=O)N1CCC[C@H]1C(=O)NCC(=O)N[C@@H](Cc1ccc(O)cc1)C(=O)N[C@@H](Cc1c[nH]c2ccccc12)C(=O)N[C@@H](CCC(N)=O)C(=O)N1CC[C@H]1C(=O)N[C@@H](Cc1ccc(O)cc1)C(N)=O)[C@@H](C)O` [AcFEWTPGYWQJY--NH2] (Ac-FEWTPGYWQ[Aze]Y-NH2), the IC50 was at most 500 nM at IL-1RtI, at most 100000 nM in experiment [1] and at most 500 nM in experiment [2].
